# Experimental data: patent US20240199618A1, “NOVEL N-ACYL-[3-SUBSTITUTED]-[8-SUBSTITUTED]-5,6-DIHYDRO-[1,2,4]TRIAZOLO[4,3-a]PYRAZINES AS SELECTIVE NK-3 RECEPTOR ANTAGONISTS, PHARMACEUTICAL COMPOSITION, METHODS FOR USE IN NK-3 RECEPTOR-MEDIATED DISORDERS” (Ogeda SA, priority 2013, published 2024)
# pIC50, pKi: −log10 of the molar value. Read-outs that look alike come from different tables or passages of the source.
# Assays:
# human NK-3 receptor [1] = target: T1, human NK-3 receptor (Homo sapiens (Human), UniProt P29371); assay: Aequorin functional assay with human NK-3 receptor (antagonist testing vs NKA); format: cell-based; details: CHO cells, NKA at EC80 (3 nM); read-out: Functional assay: Aequorin assay with human NK-3 receptor hNK-3-AEQ (antagonist IC50)
# T1 sequence (P29371 whole entry): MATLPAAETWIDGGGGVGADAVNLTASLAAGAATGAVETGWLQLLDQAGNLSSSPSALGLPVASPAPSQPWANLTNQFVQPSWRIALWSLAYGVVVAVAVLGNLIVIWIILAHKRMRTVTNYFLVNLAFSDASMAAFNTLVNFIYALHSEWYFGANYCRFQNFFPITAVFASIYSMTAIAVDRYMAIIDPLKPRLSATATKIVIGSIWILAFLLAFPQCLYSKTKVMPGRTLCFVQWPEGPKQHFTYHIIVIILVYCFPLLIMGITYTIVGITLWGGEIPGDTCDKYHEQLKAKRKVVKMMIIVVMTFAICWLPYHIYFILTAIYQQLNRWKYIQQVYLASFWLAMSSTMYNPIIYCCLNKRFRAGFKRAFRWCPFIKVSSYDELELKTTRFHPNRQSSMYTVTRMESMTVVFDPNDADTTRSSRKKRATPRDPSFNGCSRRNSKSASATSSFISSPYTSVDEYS
# Method: Aequorin Assay with Human NK-3 Receptor
# Changes in intracellular calcium levels are a recognized indicator of G protein-coupled receptor activity. The efficacy of compounds of the invention to inhibit NKA-mediated NK-3 receptor activation was assessed by an in vitro Aequorin functional assay. Chinese Hamster Ovary recombinant cells expressing the human NK-3 receptor and a construct that encodes the photoprotein apoaequorin were used for this assay. In the presence of the cofactor coelenterazine, apoaequorin emits a measurable luminescence that is proportional to the amount of intracellular (cytoplasmic) free calcium.
# The antagonist activity of compounds of the invention is measured following pre-incubation (3 minutes) of the compound (at various concentrations) with the cells, followed by addition of the reference agonist (NKA) at a final concentration equivalent to the EC80 (3 nM) and recording of emitted light (FDSS 6000 Hamamatsu) over the subsequent 90-second period. The intensity of the emitted light is integrated using the reader software. Compound antagonist activity is measured based on the concentration-dependent inhibition of the luminescence response to the addition of Neurokinin A.
# human NK-3 receptor [2] = target: T1, human NK-3 receptor; assay: 3H-SB222200 binding competition assay with human NK-3 receptor
# Method: The affinity of compounds of the invention for the human NK-3 receptor was determined by measuring the ability of compounds of the invention to competitively and reversibly displace a well-characterized NK-3 radioligand in a concentration-dependent manner.
# ^3H-SB222200 Binding Competition Assay with Human NK-3 Receptor
# Membranes were prepared from Chinese hamster ovary recombinant cells stably expressing the human NK-3 receptor. The membranes were incubated with 5 nM ^3H-SB222200 (ARC) in a HEPES 25 mM/NaCl 0.1M/CaCl2 1 mM/MgCl2 5 mM/BSA 0.5%/Saponin 10 μg/ml buffer at pH 7.4 and various concentrations of compounds of the invention. The amount of ^3H-SB222200 bound to the receptor was determined after filtration by the quantification of membrane associated radioactivity using the TopCount-NXT reader (Packard).
# human NK-1 receptor = human NK-1 receptor (Homo sapiens (Human), UniProt P25103); assay: Selectivity assay: [3H] substance P binding, human NK-1 receptor; details: 2 nM [3H] substance P, CHO membranes; read-out: hNK-1 (Ki)
# Chain of human NK-1 receptor (P25103 whole entry): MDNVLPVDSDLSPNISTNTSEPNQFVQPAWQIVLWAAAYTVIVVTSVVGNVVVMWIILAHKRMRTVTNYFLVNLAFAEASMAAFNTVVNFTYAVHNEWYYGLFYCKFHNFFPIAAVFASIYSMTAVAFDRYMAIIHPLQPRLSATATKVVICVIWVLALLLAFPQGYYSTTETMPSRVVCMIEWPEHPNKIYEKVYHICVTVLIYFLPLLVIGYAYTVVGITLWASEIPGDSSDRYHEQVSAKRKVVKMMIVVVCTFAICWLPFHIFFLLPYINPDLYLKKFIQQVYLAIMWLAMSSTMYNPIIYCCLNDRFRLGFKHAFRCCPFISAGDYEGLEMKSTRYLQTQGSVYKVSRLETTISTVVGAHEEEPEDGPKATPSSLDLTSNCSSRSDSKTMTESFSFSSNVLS
# Method: Selectivity of the compounds of the invention was determined over the other human NK receptors, namely NK-1 and NK-2 receptors.
# The affinity of compounds of the invention for the NK-1 receptor was evaluated in CHO recombinant cells which express the human NK-1 receptor. Membrane suspensions were prepared from these cells. The following radioligand: [^3H] substance P (PerkinElmer Cat #NET111520) was used in this assay. Binding assays were performed in a 50 mM Tris/5 mM MnCl2/150 mM NaCl/0.1% BSA at pH 7.4. Binding assays consisted of 25 μl of membrane suspension (approximately 5 μg of protein/well in a 96 well plate), 50 μl of compound or reference ligand (Substance P) at increasing concentrations (diluted in assay buffer) and 2 nM [^3H] substance P. The plate was incubated 60 min at 25° C. in a water bath and then filtered over GF/C filters (Perkin Elmer, 6005174, presoaked in 0.5% PEI for 2 h at room temperature) with a Filtration unit (Perkin Elmer). The radioactivity retained on the filters was measured by using the TopCount-NXT reader (Packard).
# human NK-2 receptor = human NK-2 receptor (Homo sapiens (Human), UniProt P21452); assay: Selectivity assay: [125I]-Neurokinin A binding, human NK-2 receptor; details: 0.1 nM [125I]-Neurokinin A, CHO membranes; read-out: hNK-2 (Ki)
# Chain of human NK-2 receptor (P21452 whole entry): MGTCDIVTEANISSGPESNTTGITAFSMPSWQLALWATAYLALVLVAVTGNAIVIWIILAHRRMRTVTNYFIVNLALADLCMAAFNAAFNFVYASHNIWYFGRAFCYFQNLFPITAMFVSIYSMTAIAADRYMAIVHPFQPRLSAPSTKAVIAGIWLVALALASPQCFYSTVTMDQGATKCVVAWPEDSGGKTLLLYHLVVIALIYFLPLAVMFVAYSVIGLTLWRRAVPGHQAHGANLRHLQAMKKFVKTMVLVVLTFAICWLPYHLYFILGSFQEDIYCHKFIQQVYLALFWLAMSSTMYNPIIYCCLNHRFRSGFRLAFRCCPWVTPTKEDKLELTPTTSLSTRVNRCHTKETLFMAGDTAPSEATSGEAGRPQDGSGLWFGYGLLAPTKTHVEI
# Method: The affinity of compounds of the invention for the NK-2 receptor was evaluated in CHO recombinant cells which express the human NK-2 receptor. Membrane suspensions were prepared from these cells. […] Binding assays were performed in a 25 mM HEPES/1 mM CaCl2)/5 mM MgCl2/0.5% BSA/10 μg/ml saponin, at pH 7.4. […] The radioactivity retained on the filters was measured by using the TopCount-NXT reader (Packard).
# plasma protein = assay: Determination of plasma protein binding (equilibrium dialysis, RED); format: in vitro ADME; details: 4 hours at 37° C.
# Description: Determination of plasma protein binding The pharmacokinetic and pharmacodynamic properties of chemicals/drugs are largely a function of the reversible binding of chemicals to plasma or serum proteins. […] Consequently, the extent of the plasma protein binding (PPB) of a compound influences its action as well as its distribution and elimination.
# The determination of plasma protein binding (PPB) of a compound is enabled by equilibrium dialysis, an accepted and standard method for reliable estimation of the non-bound drug fraction in plasma. RED (Rapid Equilibrium Dialysis) device insert is made of two side-by-side chambers separated by an O-ring-sealed vertical cylinder of dialysis membrane (MWCO ˜8,000). […] After 4 hours incubation at 37° C. under shaking, an aliquot is removed from each chamber and analyzed by a LC-MS/MS procedure enables the determination of both free and bound drug.
# The “free fraction” may be calculated as 100%−% rPPB (i.e. the complementary percentage of that disclosed in Table 4, corresponding to the drug concentration that is unbound and therefore available to engage biological target and elicit pharmacological activity).
# [3] = Table 2, 5 nM 3H-SB222200, CHO membranes, read-out: Competitive binding assay with human NK-3 receptor hNK-3 (Ki)
# [4] = Table 3 (selectivity table), read-out: hNK-3 (Ki)
Structure (SMILES),pIC50 (human NK-3 receptor [1]),pKi (human NK-3 receptor [2]; [3]),pKi (human NK-3 receptor [2]; [4]),pKi (human NK-1 receptor),pKi (human NK-2 receptor),"Exposure (% rPPB), bound drug fraction to plasma protein (plasma protein) [%]"
"CC(F)c1noc(-c2nnc3n2CCN(C(=O)c2ccc(F)cc2)[C@@H]3C)n1 (single isomer, unassigned) [Compound 45-1]",6.55,7.00,7.00,< 4.52,< 4.52,27
"CCc1nsc(-c2nnc3n2CCN(C(=O)c2ccc(F)cc2)C3C)n1 (racemic) [Compound 39, (3-(3-ethyl-1,2,4-thiadiazol-5-yl)-8-methyl-5,6-dihydro-[1,2,4]triazolo[4,3-a]pyrazin-7(8H)-yl)(4-fluorophenyl)methanone]",7.49,7.55,7.55,< 4.52,< 4.52,43
"Cc1nsc(-c2nnc3n2CCN(C(=O)c2cc(F)cc(F)c2)[C@@H]3C)n1 [Compound 17, (R)-(3,5-difluorophenyl)(8-methyl-3-(3-methyl-1,2,4-thiadiazol-5-yl)-5,6-dihydro-[1,2,4]triazolo[4,3-a]pyrazin-7(8H)-yl)methanone]",7.30,7.29,7.29,< 4.52,< 4.52,24
"Cc1nsc(-c2nnc3n2CCN(C(=O)c2ccc(F)c(Cl)c2)C3C)n1 (racemic) [Compound 35, (3-chloro-4-fluorophenyl)(8-methyl-3-(3-methyl-1,2,4-thiadiazol-5-yl)-5,6-dihydro-[1,2,4]triazolo[4,3-a]pyrazin-7(8H)-yl)methanone]",7.27,7.14,7.14,< 4.52,4.52,52
"Cc1nsc(-c2nnc3n2CCN(C(=O)c2cccc(F)c2)[C@@H]3C)n1 [Compound 15, (R)-(3-fluorophenyl)(8-methyl-3-(3-methyl-1,2,4-thiadiazol-5-yl)-5,6-dihydro-[1,2,4]triazolo[4,3-a]pyrazin-7(8H)-yl)methanone]",7.30,7.35,7.35,< 4.52,< 4.52,20
"Cc1nsc(-c2nnc3n2CCN(C(=O)c2ccc(Cl)c(Cl)c2)C3C)n1 (racemic) [Compound 38, (3,4-dichlorophenyl)(8-methyl-3-(3-methyl-1,2,4-thiadiazol-5-yl)-5,6-dihydro-[1,2,4]triazolo[4,3-a]pyrazin-7(8H)-yl)methanone]",7.47,7.59,7.59,4.68,4.55,76
"CCC[C@@H]1c2nnc(-c3nc(C)ns3)n2CCN1C(=O)c1ccc(F)cc1 [Compound 24, (R)-(4-fluorophenyl)(3-(3-methyl-1,2,4-thiadiazol-5-yl)-8-propyl-5,6-dihydro-[1,2,4]triazolo[4,3-a]pyrazin-7(8H)-yl)methanone]",6.92,7.11,7.11,< 4.52,< 4.52,48
"Cc1nsc(-c2nnc3n2CCN(C(=O)c2ccc(F)cc2)C3C)n1 (racemic) [Compound 14, (4-fluorophenyl)(8-methyl-3-(3-methyl-1,2,4-thiadiazol-5-yl)-5,6-dihydro-[1,2,4]triazolo[4,3-a]pyrazin-7(8H)-yl)methanone]",7.24,7.38,7.38,< 4.52,< 4.52,21
"Cc1nsc(-c2nnc3n2CCN(C(=O)c2ccc(F)c(Cl)c2)[C@@H]3C)n1 [Compound 6, (R)-(3-chloro-4-fluorophenyl)(8-methyl-3-(3-methyl-1,2,4-thiadiazol-5-yl)-5,6-dihydro-[1,2,4]triazolo[4,3-a]pyrazin-7(8H)-yl)methanone]",7.52,7.62,7.62,4.66,4.60,53
"Cc1noc(-c2nnc3n2CCN(C(=O)c2ccc(F)cc2)[C@@H]3C)n1 [Compound 28, (R)-(4-fluorophenyl)(8-methyl-3-(3-methyl-1,2,4-oxadiazol-5-yl)-5,6-dihydro-[1,2,4]triazolo[4,3-a]pyrazin-7(8H)-yl)methanone]",6.80,6.96,6.96,< 4.52,< 4.52,12
Cc1nsc(-c2nnc3n2CCN(C(=O)c2ccc(F)c(F)c2)C3C)n1 (racemic) [Compound 32],7.36,7.23,7.23,< 4.52,< 4.52,25
"C[C@@H]1c2nnc(-c3nc(CC(F)(F)F)no3)n2CCN1C(=O)c1ccc(F)cc1 [Compound 44, (R)-(4-fluorophenyl)(8-methyl-3-(3-(2,2,2-trifluoroethyl)-1,2,4-oxadiazol-5-yl)-5,6-dihydro-[1,2,4]triazolo[4,3-a]pyrazin-7(8H)-yl)methanone]",6.69,7.35,7.35,< 4.52,< 4.52,31
"Cc1nsc(-c2nnc3n2CCN(C(=O)c2cc(F)c(F)c(F)c2)C3C)n1 (racemic) [Compound 34, (8-methyl-3-(3-methyl-1,2,4-thiadiazol-5-yl)-5,6-dihydro-[1,2,4]triazolo[4,3-a]pyrazin-7(8H)-yl)(3,4,5-trifluorophenyl)methanone]",7.21,7.42,7.42,< 4.52,< 4.52,24
"COc1cc(C(=O)N2CCn3c(-c4nc(C)ns4)nnc3[C@H]2C)ccc1F [Compound 25, (R)-(4-fluoro-3-methoxyphenyl)(8-methyl-3-(3-methyl-1,2,4-thiadiazol-5-yl)-5,6-dihydro-[1,2,4]triazolo[4,3-a]pyrazin-7(8H)-yl)methanone]",6.96,7.07,7.07,< 4.52,< 4.52,19
